Source: ChEMBL document CHEMBL1132632, “Conformational and quantitative structure-activity relationship study of cytotoxic 2-arylidenebenzocycloalkanones” (J Med Chem, 1999)

Key:
CCRF-CEM [1] = test: Inhibitory activity was tested against CEM cells; format: functional, cell-based; details: Homo sapiens
CCRF-CEM [2] = test: Average potency against CEM cells; format: functional, Homo sapiens
L1210 [3] = test: Average potency against L1210 cells; format: functional, Mus musculus
MOLT-4 [4] = test: Average potency against Molt4/C8cells; format: functional, Homo sapiens
MOLT-4 [5] = test: Inhibitory activity was tested against Molt4/C8 cells; format: functional, cell-based; details: Homo sapiens
P388 [6] = test: Average potency against P388 cells; format: functional, Mus musculus
P388 [7] = test: Inhibitory activity was tested against P388 cells; format: functional, cell-based; details: Mus musculus
L1210 [8] = test: Inhibitory activity was tested against L1210 cells; format: functional, cell-based; details: Mus musculus

O=C1/C(=C/c2ccc(F)cc2)CCCc2ccccc21
IC50 (CCRF-CEM [1]): 20 µM
AP (CCRF-CEM [2]): 47 µM
AP (L1210 [3]): 85.2 µM
AP (MOLT-4 [4]): 66 µM
IC50 (MOLT-4 [5]): 53.6 µM
AP (P388 [6]): 11.2 µM
IC50 (P388 [7]): 11.1 µM
IC50 (L1210 [8]): 60.3 µM

O=C1/C(=C/c2ccc(Cl)cc2)Cc2ccccc21
IC50 (CCRF-CEM [1]): 284 µM
AP (CCRF-CEM [2]): 155 µM
AP (L1210 [3]): 127 µM
AP (MOLT-4 [4]): 267 µM
IC50 (MOLT-4 [5]): > 500 µM
AP (P388 [6]): 42.9 µM
IC50 (P388 [7]): > 50 µM
IC50 (L1210 [8]): 54.1 µM

O=C1/C(=C/c2ccc([N+](=O)[O-])cc2)CCc2ccccc21
IC50 (CCRF-CEM [1]): > 500 µM
AP (CCRF-CEM [2]): 115 µM
AP (L1210 [3]): 135 µM
AP (MOLT-4 [4]): 158 µM
IC50 (MOLT-4 [5]): > 500 µM
AP (P388 [6]): 20.9 µM
IC50 (P388 [7]): > 50 µM
IC50 (L1210 [8]): > 500 µM

CN(C)c1ccc(/C=C2\CCc3ccccc3C2=O)cc1
IC50 (CCRF-CEM [1]): 1.65 µM
AP (CCRF-CEM [2]): 115 µM
AP (L1210 [3]): 135 µM
AP (MOLT-4 [4]): 158 µM
IC50 (MOLT-4 [5]): 2.11 µM
AP (P388 [6]): 20.9 µM
IC50 (P388 [7]): 5.3 µM
IC50 (L1210 [8]): 17.5 µM

O=C1/C(=C/c2cccc(Br)c2)CCCc2ccccc21
IC50 (CCRF-CEM [1]): 8.9 µM
AP (CCRF-CEM [2]): 47 µM
AP (L1210 [3]): 85.2 µM
AP (MOLT-4 [4]): 66 µM
IC50 (MOLT-4 [5]): 17.1 µM
AP (P388 [6]): 11.2 µM
IC50 (P388 [7]): 10.5 µM
IC50 (L1210 [8]): 51 µM

Cc1cccc(/C=C2\Cc3ccccc3C2=O)c1
IC50 (CCRF-CEM [1]): 41.3 µM
AP (CCRF-CEM [2]): 155 µM
AP (L1210 [3]): 127 µM
AP (MOLT-4 [4]): 267 µM
IC50 (MOLT-4 [5]): 80.3 µM
AP (P388 [6]): 42.9 µM
IC50 (P388 [7]): 24.9 µM
IC50 (L1210 [8]): 50.4 µM

O=C1/C(=C/c2ccccc2)Cc2ccccc21
IC50 (CCRF-CEM [1]): 41.3 µM
AP (CCRF-CEM [2]): 155 µM
AP (L1210 [3]): 127 µM
AP (MOLT-4 [4]): 267 µM
IC50 (MOLT-4 [5]): 42.3 µM
AP (P388 [6]): 42.9 µM
IC50 (P388 [7]): > 50 µM
IC50 (L1210 [8]): 112 µM

O=C1CCCCC/C1=C\c1ccc(Br)cc1
IC50 (CCRF-CEM [1]): 42.8 µM
AP (CCRF-CEM [2]): 136 µM
AP (L1210 [3]): 227 µM
AP (MOLT-4 [4]): 186 µM
IC50 (MOLT-4 [5]): 49.4 µM
AP (P388 [6]): 34.5 µM
IC50 (P388 [7]): 16.8 µM
IC50 (L1210 [8]): 68.4 µM

O=C1/C(=C/c2ccc(Br)cc2)CCCc2ccccc21
IC50 (CCRF-CEM [1]): 17.1 µM
AP (CCRF-CEM [2]): 47 µM
AP (L1210 [3]): 85.2 µM
AP (MOLT-4 [4]): 66 µM
IC50 (MOLT-4 [5]): 54.7 µM
AP (P388 [6]): 11.2 µM
IC50 (P388 [7]): 18.6 µM
IC50 (L1210 [8]): 50.9 µM

O=C1/C(=C/c2ccc(Br)cc2)CCc2ccccc21
IC50 (CCRF-CEM [1]): > 500 µM
AP (CCRF-CEM [2]): 115 µM
AP (L1210 [3]): 135 µM
AP (MOLT-4 [4]): 158 µM
IC50 (MOLT-4 [5]): > 500 µM
AP (P388 [6]): 20.9 µM
IC50 (P388 [7]): 20.4 µM
IC50 (L1210 [8]): 202 µM

O=C1/C(=C/c2ccc(F)cc2)CCc2ccccc21
IC50 (CCRF-CEM [1]): 33.4 µM
AP (CCRF-CEM [2]): 115 µM
AP (L1210 [3]): 135 µM
AP (MOLT-4 [4]): 158 µM
IC50 (MOLT-4 [5]): 41.2 µM
AP (P388 [6]): 20.9 µM
IC50 (P388 [7]): 15.9 µM
IC50 (L1210 [8]): 49.3 µM

O=C1/C(=C/c2cccc([N+](=O)[O-])c2)CCc2ccccc21
IC50 (CCRF-CEM [1]): 5.3 µM
AP (CCRF-CEM [2]): 115 µM
AP (L1210 [3]): 135 µM
AP (MOLT-4 [4]): 158 µM
IC50 (MOLT-4 [5]): 8.01 µM
AP (P388 [6]): 20.9 µM
IC50 (P388 [7]): 12 µM
IC50 (L1210 [8]): 254 µM

O=C1CCCCC/C1=C\c1cccc(Br)c1
IC50 (CCRF-CEM [1]): 137 µM
AP (CCRF-CEM [2]): 136 µM
AP (L1210 [3]): 227 µM
AP (MOLT-4 [4]): 186 µM
IC50 (MOLT-4 [5]): 176 µM
AP (P388 [6]): 34.5 µM
IC50 (P388 [7]): 24.1 µM
IC50 (L1210 [8]): 246 µM

O=C1/C(=C/c2ccc(F)cc2)Cc2ccccc21
IC50 (CCRF-CEM [1]): 42.2 µM
AP (CCRF-CEM [2]): 155 µM
AP (L1210 [3]): 127 µM
AP (MOLT-4 [4]): 267 µM
IC50 (MOLT-4 [5]): 60 µM
AP (P388 [6]): 42.9 µM
IC50 (P388 [7]): > 50 µM
IC50 (L1210 [8]): 89 µM

O=C1/C(=C/c2cccc(F)c2)CCc2ccccc21
IC50 (CCRF-CEM [1]): 8.01 µM
AP (CCRF-CEM [2]): 115 µM
AP (L1210 [3]): 135 µM
AP (MOLT-4 [4]): 158 µM
IC50 (MOLT-4 [5]): 11.9 µM
AP (P388 [6]): 20.9 µM
IC50 (P388 [7]): 31.1 µM
IC50 (L1210 [8]): 61.2 µM
